Measured values reported in US20220305015A1, “COMBINATORIAL THERAPY TARGETING PARP1 AND RTK” (Board of Regents, The University of Texas System, priority 2019, published 2022).

Experiments:
[1] = tested on: SUM149-derived talazoparib-resistant (BR) cells; assay: MTT assay, cell survival; type: cell-based; details: for cross-resistance of BR cells to PARPi: talazoparib-resistant BR cells, MTT assay
Procedure: (§1) Cells were seeded at a concentration of 1,000 cells/well in a 96-well plate and cultured overnight before treatments with inhibitors. Inhibitor-containing media was refreshed every 3 days for a 6-day treatment schedule. Cells were incubated with 0.5 mg/ml thiazolyl blue tetrazolium bromide (Sigma-Aldrich) for 2 hours, and formazan crystals were dissolved using DMSO. Optical density at 565 nm was measured and survival percentages were calculated by normalizing the optical density value of each treatment group to that of the control group, treated with DMSO only. Half-maximal inhibitory concentrations of inhibitors were calculated using the standard curve interpolate function in GraphPad Prism 8.
For Western blot signal quantification, signal intensities were analyzed using Image Studio Lite (version 5.2; LI-COR Biosciences). Signals of PARP1, PARylation, FGFR3, and phosphorylated FGFR were first normalized to house-keeping proteins (tubulin, actin, or GAPDH) of each sample before being normalized to the control groups. Every independent experiment repeat was quantified individually. Fold changes in Western blot signals were analyzed by a nonparametric Friedman test using the GraphPad Prism 8.0 software. A p value of less than 0.05 was considered statistically significant: *p <0.05; **p <0.002; ***p <0.001. Combination index experiments were designed according to the Chou-Talalay method^39, and results were calculated using Compusyn software.

[2] = tested on: HCC1806-BR cells; assay: MTT assay, survival of HCC1806-BR and HCC1806 parental cells; type: cell-based; details: 6 days of PARPi
Procedure: FIGS. 7A-7B. Activation of FGFR3 in HCC1806-BR cells. […] HCC1806-BR cells were developed by treating HCC1806 cells with […] talazoparib continuously for 9 months. Survival of HCC1806-BR and HCC1806 parental cells in response to talazoparib, olaparib, and rucaparib was measured by exposing cells to various concentrations of the indicated PARPi for 6 days before performing the MTT assay. (FIG. 7B) Antibody arrays of receptor tyrosine kinase activation in HCC1806 parental cells and HCC1806-BR cells. Cells were treated with either dimethyl sulfoxide (DMSO) or talazoparib overnight before being harvested for RTK antibody array analysis. PBS, phosphate-buffered saline.
as §1

[3] = tested on: BR# 09 cells; assay: BR# 09 orthotopic xenograft mouse model; type: in vivo, mice; details: for tumor growth: BR# 09 model, oral gavage daily, olaparib 40, AZD4547 8, talazoparib 0.25, PD173074 15 mg/kg per day; for talazoparib-induced FGFR phosphorylation in tumors: 3 days
Procedure: (§2) Animal studies were performed following a protocol approved by The University of Texas MD Anderson Cancer Center Institutional Animal Care and Use Committee. Female nude mice were purchased from the Department of Experimental Radiation Oncology at MD Anderson. For BR# 09 and BR# 17 xenograft mouse models, two million cells were mixed with 50% (v/v) growth factor reduced Matrigel matrix (Corning) and inoculated into the mammary fat pads of 6- to 8-week-old female nude mice. For the 4T1 model, female Balb/c mice were purchased from Jackson Laboratory. A total of 50,000 4T1 cells were mixed with Matrigel matrix and inoculated into the mammary fat pad of 6-week-old female Balb/c mice. Inhibitors were dissolved in vehicle solvent containing 10% dimethylacetamide (Sigma-Aldrich), 5% Kolliphor HS 15 (Sigma-Aldrich), and 85% phosphate-buffered saline (Evans et al., 2017). […] Treatment with inhibitors started when tumor volumes reached a mean of 120 mm^3. Mice were treated using oral gavage daily for 20 days followed by 3 days with no drugs to prevent severe weight loss. After the first cycle, treatment was continued on a schedule of 6 days on and 1 day off. Mouse weight and tumor volume were measured three times every week. Tumor volume was estimated using the following formula: volume (mm^3) =length (mm)×width (mm)×0.5 width (mm), where length is the longest axis of the tumor. Mice were euthanized using CO2 when the tumor volume reached 2,000 mm^3. For the blood chemical test, mouse cardiac blood was collected by veterinarians in the Department of Veterinary Medicine and Surgery at MD Anderson after 16 days of treatment. Concentrations of alanine aminotransferase, aspartate aminotransferase, and blood urea nitrogen in Balb/c mice were referred to North American colonies of Charles River Balb/c mice.

[4] = tested on: BR# 17 cells; assay: BR# 17 orthotopic xenograft mouse model; type: in vivo, mice; details: BR# 17 model; oral gavage daily; olaparib 40, AZD4547 8, talazoparib 0.25, PD173074 15 mg/kg per day
Procedure: as §2

[5] = biological target: His-tagged PARP1 recombinant protein (UniProt P09874)
Sequence of His-tagged PARP1 recombinant protein (P09874 whole entry, looked up): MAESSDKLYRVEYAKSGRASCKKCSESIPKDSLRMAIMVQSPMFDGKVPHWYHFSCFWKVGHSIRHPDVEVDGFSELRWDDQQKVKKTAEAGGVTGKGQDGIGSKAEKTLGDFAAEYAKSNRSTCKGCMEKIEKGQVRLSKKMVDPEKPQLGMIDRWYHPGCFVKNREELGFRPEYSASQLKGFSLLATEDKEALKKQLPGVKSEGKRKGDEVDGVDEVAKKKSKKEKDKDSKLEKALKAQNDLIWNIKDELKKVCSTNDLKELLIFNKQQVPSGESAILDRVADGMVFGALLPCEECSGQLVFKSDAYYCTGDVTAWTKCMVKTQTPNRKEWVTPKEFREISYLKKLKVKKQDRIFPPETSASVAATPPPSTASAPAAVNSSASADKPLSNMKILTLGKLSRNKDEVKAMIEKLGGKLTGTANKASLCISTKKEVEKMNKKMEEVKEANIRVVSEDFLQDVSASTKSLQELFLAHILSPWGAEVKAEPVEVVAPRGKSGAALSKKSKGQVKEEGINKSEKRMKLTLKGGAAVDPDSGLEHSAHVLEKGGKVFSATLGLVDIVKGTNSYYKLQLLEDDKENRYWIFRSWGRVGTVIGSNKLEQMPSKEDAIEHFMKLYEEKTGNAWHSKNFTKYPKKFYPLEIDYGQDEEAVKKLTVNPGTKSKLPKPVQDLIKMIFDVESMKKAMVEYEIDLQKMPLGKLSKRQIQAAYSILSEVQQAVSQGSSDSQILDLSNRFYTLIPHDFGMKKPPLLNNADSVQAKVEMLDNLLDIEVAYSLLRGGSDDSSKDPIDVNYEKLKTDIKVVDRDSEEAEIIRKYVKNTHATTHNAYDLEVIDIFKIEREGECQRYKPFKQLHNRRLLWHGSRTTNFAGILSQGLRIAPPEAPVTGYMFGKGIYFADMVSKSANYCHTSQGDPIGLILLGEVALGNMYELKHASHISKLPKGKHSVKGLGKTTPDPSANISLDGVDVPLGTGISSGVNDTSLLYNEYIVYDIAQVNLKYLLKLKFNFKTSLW

[6] = tested on: SUM149-derived talazoparib-resistant (BR) cells; assay: Colony formation assay; type: cell-based; details: colony formation assays; BR cells vs SUM149 parental cells
Procedure: SUM149 cells (600 cells/well), BR# 09 cells (800 cells/well), and BR# 17 cells (1,000 cells/well) were seeded into a 12-well plate 18 hours before treatments. Inhibitor-containing media was refreshed every 2 days. Cells were fixed using 4% paraformaldehyde after 10-14 days of treatment. Colonies were stained with 0.5% crystal violet before plates were imaged, and colony number was quantified using the Celigo imaging cytometer (Nexcelom Bioscience). Cell survival rate was calculated by normalizing the number of colonies in each well to that of the vehicle-treated well on the same culture plate.

[7] = tested on: BR# 17 cells; assay: yH2AX foci immunofluorescence staining after MMS; type: cell-based; details: after MMS removal
Procedure: FIGS. 2A-2C: Inhibition of FGFR3 decreases DNA damage repair. (FIG. 2A) SUM149-derived talazoparib-resistant (BR)# 17 cells were treated for 1 hour with methyl methanesulfonate (MMS), talazoparib (Tala), and PD173074 (PD) as indicated. After MMS removal, cells were cultured for the indicated time before immunofluorescence staining. Representative images of yH2AX (green) and DNA (blue) are shown. […] (FIG. 2B) For comet assay analysis, BR# 09 cells were incubated for another 3 hours after MMS removal. DNA damage was normalized to that of the talazoparib-treated group. Mean ±standard deviation is shown (n >100). (FIG. 2C) Combination index (CI) of talazoparib and PD173074 in BR cells, measured by colony formation assay. Analysis of variance was used for statistical comparisons.
Immunofluorescence staining and confocal microscopy were performed as previously described (Chen, et al., 2019). Cells were treated with DMSO (solvent control), talazoparib (125 nM for BR# 09; 250 nM for BR# 17), PD173074 (10 μM), or the combination of talazoparib and PD173074 for the time indicated. […] In both immunostaining and the proximity ligation assay, images of the cells were captured and analyzed with an LSM 710 laser confocal microscope and Zeiss Zen software (Carl Zeiss) and foci counting was performed using BlobFinder (Allalou and Wahlby, 2020).

[8] = biological target: T1, FGFR3 (Homo sapiens, UniProt P22607); assay: Western blot of FGFR phosphorylation in cells treated with MMS and talazoparib; type: cell-based; details: BR# 09 and BR# 17 cells; 5 μM FGFRi
T1 construct: endogenous in cells; host or cells: SUM149 parental cells and SUM149-derived talazoparib-resistant BR cells (BR#09, BR#17)
T1 sequence (P22607 23-806): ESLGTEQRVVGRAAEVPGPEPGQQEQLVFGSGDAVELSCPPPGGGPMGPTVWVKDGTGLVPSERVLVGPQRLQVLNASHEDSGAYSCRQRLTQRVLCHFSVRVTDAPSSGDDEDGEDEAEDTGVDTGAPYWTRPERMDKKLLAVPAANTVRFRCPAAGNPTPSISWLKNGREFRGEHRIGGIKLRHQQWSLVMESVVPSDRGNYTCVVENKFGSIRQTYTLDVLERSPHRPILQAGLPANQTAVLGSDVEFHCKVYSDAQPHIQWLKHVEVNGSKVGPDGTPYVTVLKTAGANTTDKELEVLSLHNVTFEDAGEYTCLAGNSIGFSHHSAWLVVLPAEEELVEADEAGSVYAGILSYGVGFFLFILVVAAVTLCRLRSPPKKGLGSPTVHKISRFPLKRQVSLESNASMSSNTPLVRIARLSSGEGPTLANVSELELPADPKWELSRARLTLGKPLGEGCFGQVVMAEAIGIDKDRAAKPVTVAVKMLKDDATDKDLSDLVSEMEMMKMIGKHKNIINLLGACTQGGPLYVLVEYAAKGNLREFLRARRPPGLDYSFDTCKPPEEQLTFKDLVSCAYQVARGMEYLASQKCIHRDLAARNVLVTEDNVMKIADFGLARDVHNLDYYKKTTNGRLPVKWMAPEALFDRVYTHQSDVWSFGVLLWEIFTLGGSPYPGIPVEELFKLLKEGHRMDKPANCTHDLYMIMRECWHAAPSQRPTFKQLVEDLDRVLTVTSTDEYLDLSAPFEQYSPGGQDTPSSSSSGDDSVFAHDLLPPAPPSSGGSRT
Procedure: (FIG. 8B) BR# 17 cells were treated with 250 nM talazoparib and 0.01% MMS and FGFRi for 1 hour before being fixed and subjected to immunofluorescence staining with antibodies against FGFR3 (TexasRed, red) and yH2AX (FITC, green).

[9] = tested on: p-Y158 PARP1; assay: Western blot of Y158-phosphorylated PARP1 in BR cells; type: cell-based
Description: FIGS. 3A-3E: FGFR3 mediates PARP inhibitor resistance by phosphorylating PARP1 at Y158 residue. (FIG. 3A) Proximity ligation assay (PLA) signals of FGFR3 and PARP1 (red), phalloidin (green), and DNA (blue) were merged in representative images of the treatment indicated (MMS, methyl methanesulfonate; Tala, talazoparib; PD, PD173074; BR, SUM149-derived talazoparib-resistant cells). Mean ±95% confidence interval PLA signals in each cell nucleus are shown in the histograms (n >100). *p <0.05; ***p <0.001; n.s., not significant. (FIG. 3B) Cell survival of BR cells with PARP1 knockdown expressing hemagglutinin-tagged vector control (Neo), wild-type PARP1 (WT), or PARP1^Y158F (Y158F) mutant in response to talazoparib, measured by MTT assay (mean ±standard deviation; n >3). (FIG. 3C) BR# 17 cells were treated with MMS, talazoparib, and PD173074 as indicated for Western blot analysis. (FIG. 3D) Combination index (CI) of talazoparib and PD173074 in BR# 17 cells expressing PARP1^WT or PARP1^Y158F measured by MTT assay. (FIG. 3E) Cells were harvested at different time points after 40 minutes of treatment with talazoparib and MMS. […]
The precipitated protein complex was then washed and subjected to Western blot analysis performed as described previously (Chen, et al., 2019). Signals were detected using the ImageQuant 4000 system (GE Healthcare) and quantified using Image Studio Lite.

[10] = biological target: T2, PARP1 (Homo sapiens, UniProt P09874); assay: PARP trapping assay (chromatin-bound PARP1); type: cell-based; details: BR cells, 10 μM PD173074, 100 nM talazoparib, MMS
T2 construct: endogenous in cells; host or cells: SUM149-derived talazoparib-resistant (BR) cells
T2 sequence (P09874 whole entry): as the sequence (P09874 whole entry, looked up) above

| Compound | cross-resistance of BR cells to PARPi [1] | resistance of HCC1806-BR cells compared with HCC1806 parental cells [2] | tumor growth [3] | tumor growth [4] | further results |
| --- | --- | --- | --- | --- | --- |
| O=C(c1cc(Cc2n[nH]c(=O)c3ccccc23)ccc1F)N1CCN(C(=O)C2CC2)CC1 [olaparib] | cross-resistance | more resistant | did not inhibit tumor growth | did not inhibit tumor growth | – |
| activated FGFR kinase domain | – | – | – | – | tyrosine phosphorylation in in vitro kinase assay (Western blot with anti-phospho-tyrosine antibodies; mass spectrum analysis) [5]: FGFR can phosphorylate PARP1 at tyrosine (Y)158 and Y176 amino acids |
| Cn1ncnc1[C@H]1c2n[nH]c(=O)c3cc(F)cc(c23)N[C@@H]1c1ccc(F)cc1 [talazoparib] | – | more resistant | did not inhibit tumor growth | did not inhibit tumor growth | half-maximal inhibitory concentration in BR cells relative to parental cells ([1]; MTT assays, BR cells vs SUM149 parental cells): more than 100 fold; increase in resistance to talazoparib on PARP1 knockdown ([1]; SUM149, BR# 09 and BR# 17 cells with shPARP1 vs non-targeting shRNA control): ≥ 10 fold; half-maximal inhibitory concentration in BR cells relative to parental cells [6]: more than 100 fold; yH2AX foci at 8 hours compared with 4 hours [7]: significantly decreased; FGFR3 phosphorylation in tumors ([3]; tumors harvested after 3 days of treatment, talazoparib alone): induced |
| C[C@]1(c2nc3c(C(N)=O)cccc3[nH]2)CCCN1 [veliparib] | cross-resistance | – | – | – | – |
| AZD4547 | – | – | not | inhibited tumor growth | – |
| CNCc1ccc(-c2[nH]c3cc(F)cc4c3c2CCNC4=O)cc1 [rucaparib] | cross-resistance | more resistant | – | – | – |
| CCN(CC)CCCCNc1ncc2cc(-c3cc(OC)cc(OC)c3)c(NC(=O)NC(C)(C)C)nc2n1 [PD173074] | – | – | did not inhibit tumor growth | did not inhibit tumor growth | FGFR phosphorylation in response to MMS and talazoparib [8]: inhibited; yH2AX foci at 8 hours compared with 4 hours [7]: significantly decreased; p-Y158 PARP1 level [9]: diminished; talazoparib-induced PARP1 trapping [10]: prolong; body weight ([3]; BR xenograft mouse models, PD173074 15 mg/kg per day, alone or with talazoparib 0.25 mg/kg per day, long-term treatment): no loss of body weight; talazoparib-induced FGFR phosphorylation in tumors ([3]; PD173074 10 mg/kg per day): inhibited; talazoparib-induced FGFR phosphorylation in tumors ([3]; PD173074 20 mg/kg per day): less than the basal levels |
